From patent US5756348A (Synaptic Pharmaceutical Corporation, priority 1994, dated 1998)

Key:
[1] = target: T1, glycine transporter encoded by rB20a (Rattus norvegicus, UniProt P28572); assay: Competition for [3H]glycine uptake by COS-7 cells transfected with rB20a; assay type: cell-based; conditions: for inhibition at 1000 µM / inhibition at 10 µM / inhibition at 100 µM: COS-7, 10 min, read-out: % displacement of specific [3H]glycine uptake; for % displacement of specific [3H]glycine uptake: 50 nM [3H]glycine, 10 minutes, 37° C.
T1 construct: expressed in transfected cells
T1 sequence (P28572 1-638): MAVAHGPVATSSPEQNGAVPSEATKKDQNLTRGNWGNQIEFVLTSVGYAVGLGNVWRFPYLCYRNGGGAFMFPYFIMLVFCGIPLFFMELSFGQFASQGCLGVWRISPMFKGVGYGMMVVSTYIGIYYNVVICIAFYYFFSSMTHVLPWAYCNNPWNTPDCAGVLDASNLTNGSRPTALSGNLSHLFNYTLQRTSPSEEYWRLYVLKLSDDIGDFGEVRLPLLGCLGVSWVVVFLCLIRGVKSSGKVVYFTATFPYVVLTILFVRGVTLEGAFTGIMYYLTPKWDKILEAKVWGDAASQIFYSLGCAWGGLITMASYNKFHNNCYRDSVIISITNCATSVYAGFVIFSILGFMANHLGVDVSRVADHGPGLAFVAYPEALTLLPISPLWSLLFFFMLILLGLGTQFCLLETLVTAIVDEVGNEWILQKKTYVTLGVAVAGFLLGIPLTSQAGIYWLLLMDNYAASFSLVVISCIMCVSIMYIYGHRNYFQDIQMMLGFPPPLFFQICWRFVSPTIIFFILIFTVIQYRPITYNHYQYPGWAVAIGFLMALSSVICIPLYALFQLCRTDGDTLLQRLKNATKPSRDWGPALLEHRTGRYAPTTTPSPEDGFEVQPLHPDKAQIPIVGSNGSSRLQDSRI
Procedure: (§1) These two clones were constructed into a full-length clone (designated rB20a) by ligation at their internal Nco I sites and then cloned into the eukaryotic expression vector pSVL (Pharmacia LXB Biotechnology, Piscataway, N.J.). Transient transfection of COS cells was carried out using DEAE-dextran with DMSO according to the method of Lopata et al. (1984) with minor modifications. COS cells were grown in six-well plates (37° C.,5%CO2) in high glucose Dulbecco's modified Eagle medium supplemented with 10% bovine calf serum, 100 U/ml penicillin G, and 100 μg/ml streptomycin sulfate. Cells were routinely used two days after transfection for transport studies.
(§2) Plates were incubated at 37° C. for 10 or 20 minutes, then washed rapidly 3× with HBS. Cells were solubilized with 0.05% sodium deoxycholate/0.1N NaOH (1 ml/well), 0.5 ml aliquots were removed, neutralized with 1N HCl, and radioactivity was determined by scintillation counting. Protein was quantified in an aliquot of the solubilized cells with the Bradford Reagent (Biorad, Richmond, Calif.), according to the manufacturer's directions.
Nonspecific uptake was determined with 1 mM

[2] = test system: high-affinity transporter present in glial cell cultures; conditions: read-out: Km for glycine; cited from earlier work
[3] = test system: high-affinity transporter in rat brain synaptosomes; conditions: read-out: Km for glycine; cited from earlier work
[4] = target: T1, glycine transporter encoded by rB20a; assay: Transport of radiolabeled substrates by COS cells transiently transfected with rB20a; assay type: cell-based; conditions: data not shown
Procedure: as §1, §2

NCCCC(=O)O [GABA, gamma-aminobutyric acid]
inhibition at 1000 µM [1]: 0%

NCC(=O)O [glycine]
inhibition at 1000 µM [1]: 100% | Km [2]: 95 µM | Km [3]: 50 µM

NCCc1c[nH]c2ccc(O)cc12 [[^3 H]5-HT]
effect of rB20a expression on uptake of the radiolabeled substrate [4]: did not significantly alter

[3H][C@](O)(CN)c1ccc(O)c(O)c1 [[^3 H]norepinephrine]
effect of rB20a expression on uptake of the radiolabeled substrate [4]: did not significantly alter

N[C@@H](CCC(=O)O)C(=O)O [L-glutamate]
inhibition at 1000 µM [1]: 0%

^3 H]glutamate
effect of rB20a expression on uptake of the radiolabeled substrate [4]: did not significantly alter

NCCCC(=O)O [[^3 H]GABA]
effect of rB20a expression on uptake of the radiolabeled substrate [4]: did not significantly alter

CCOC(=O)CN [glycine ethyl ester]
inhibition at 10 µM [1]: 0% | inhibition at 100 µM [1]: 0% | inhibition at 1000 µM [1]: 32% | % displacement of specific [3H]glycine uptake ([1]; inhibitor 10 μM): no inhibition | % displacement of specific [3H]glycine uptake ([1]; inhibitor 100 μM): no inhibition

NCCc1ccc(O)c(O)c1 [[^3 H]dopamine]
effect of rB20a expression on uptake of the radiolabeled substrate [4]: did not significantly alter

NCCc1ccc(O)c(O)c1 [dopamine]
inhibition at 1000 µM [1]: 0%

NCCc1c[nH]cn1 [histamine]
inhibition at 1000 µM [1]: 0%

COC(=O)CN [glycine methyl ester]
inhibition at 10 µM [1]: 0% | inhibition at 100 µM [1]: 0% | inhibition at 1000 µM [1]: 42% | % displacement of specific [3H]glycine uptake ([1]; inhibitor 10 μM): no inhibition | % displacement of specific [3H]glycine uptake ([1]; inhibitor 100 μM): no inhibition

NCCc1cnc[nH]1 [[^3 H]histamine]
effect of rB20a expression on uptake of the radiolabeled substrate [4]: did not significantly alter

N[C@@H](CO)C(=O)O [L-serine]
inhibition at 1000 µM [1]: 4% | % displacement of specific [3H]glycine uptake ([1]; inhibitor 1 mM): Neither α-(methylamino) isobutyric acid (1 mM), a substrate for system A, nor L-serine (1 mM), a substrate for system ASC, significantly competed

CNC(C)(C)C(=O)O [α-(methylamino)isobutyric acid]
inhibition at 1000 µM [1]: 3% | % displacement of specific [3H]glycine uptake ([1]; inhibitor 1 mM): Neither α-(methylamino) isobutyric acid (1 mM), a substrate for system A, nor L-serine (1 mM), a substrate for system ASC, significantly competed

N[C@@H](Cc1ccc(O)cc1)C(=O)O [[^3 H]tyrosine]
effect of rB20a expression on uptake of the radiolabeled substrate [4]: did not significantly alter

NC[C@H](O)c1ccc(O)c(O)c1 [(-)-norepinephrine]
inhibition at 1000 µM [1]: 0%

C[C@H](N)C(=O)O [L-alanine]
inhibition at 1000 µM [1]: 2%

CNCC(=O)O [sarcosine, N-methylglycine]
inhibition at 10 µM [1]: 23% | inhibition at 100 µM [1]: 64% | inhibition at 1000 µM [1]: 100% | IC50 ([1]; estimated from inhibition at three concentrations): ~50 µM
